Experimental data as given in publication PMC8954382, “A Sub-Micromolar MraYAA Inhibitor with an Aminoribosyl Uridine Structure and a (S,S)-Tartaric Diamide: Synthesis, Biological Evaluation and Molecular Modeling” (Molecules, 2022).
Where two headings read alike, the source gives them in different places.

What was measured:
[1] = system: Staphylococcus aureus ATCC 25923; assay: Antibacterial activity, MIC by broth microdilution; format: cell-based; details: Gram +
Protocol: (§1) Even if our goal was to improve the MraY inhibitory activity of the reference urea 13, and that was successfully achieved, the antibacterial activity of MraY inhibitors 2–5 was also evaluated against several bacterial strains. Gram-negative (E. coli ATCC 8730, C. freundii ATCC8090 and P. aeruginosa ATCC 27853) and Gram-positive pathogenic bacterial strains (S. aureus ATCC 25923 and E. faecium ATCC 19434), including a methicillin resistant strain (S. aureus MRSA ATCC 43300), were selected as representative of pathogen bacterial diversity. Piperacillin and vancomycin were used as positive controls in the tests. […] Therefore, further optimization of the lipophilic side chain is still required to increase the antibacterial activity by modulating the lipophilicity of the molecule.
(§2) Tests were made according to the procedure described in Reference, following EUCAST (European Committee on Antimicrobial Susceptibility testing)/CLSI (Clinical and Laboratory Standard Institute) recommended procedure. This microtitration plate size allows direct detection of bacterial growth in a relatively small volume, without the use of a spectrophotometer or the addition of dyes. Molecules were solubilized in 100% DMSO (cell culture grade) at 20.48 mg/mL concentration and 40-fold diluted in MHB to reduce DMSO concentration in the antibacterial test, just before utilization. The MHB-diluted solutions were then serially two-fold diluted in MHB, at final concentration ranging from 128 to 1 µg/mL. Bacterial inoculums were prepared for each strain, resuspending isolated colonies from 18 h cultured plates. Equivalents of 0.5 Mac Farland turbidity standard (approximately 1.108 CFU/mL) were prepared in saline solution (NaCl […]) and diluted 200-fold in MBH. The bacterial suspensions were then added to microplates containing the diluted molecules. Microtitration plates were incubated overnight at 37 °C. MICs were determined as the lowest dilution of product showing no visual turbidity.

[2] = system: Escherichia coli ATCC 8730; assay: Antibacterial activity, MIC by broth microdilution; format: cell-based; details: Gram -
Protocol: as §1, §2

[3] = system: Enterococcus faecium ATCC 19434; assay: Antibacterial activity, MIC by broth microdilution; format: cell-based; details: Gram +
Protocol: as §1, §2

[4] = system: Citrobacter freundii ATCC 8090; assay: Antibacterial activity, MIC by broth microdilution; format: cell-based; details: Gram -
Protocol: as §1, §2

[5] = system: Staphylococcus aureus MRSA ATCC 43300; assay: Antibacterial activity, MIC by broth microdilution; format: cell-based; details: Gram +
Protocol: as §1, §2

[6] = system: Pseudomonas aeruginosa ATCC 27853; assay: Antibacterial activity, MIC by broth microdilution; format: cell-based; details: Gram -
Protocol: as §1, §2

[7] = molecular target: T1, MraY transferase purified from Aquifex aeolicus (MraYAA) (Aquifex aeolicus, UniProt O66465); assay: MraYAA transferase inhibition, fluorescence assay with dansylated UDP-MurNAc-pentapeptide; format: biochemical; details: for IC50: inhibition of MraYAA transferase activity, triplicate, repeated at least twice
T1 construct: His tag; made in house
Protocol: The inhibitory activity of the synthesized compounds 2, (S,S)-3a, (R,R)-3b, 4 and 5 was evaluated on MraY transferase purified from Aquifex aeolicus (MraYAA), which was prepared as previously described by Chung et al.. Their activity was compared to the inhibitory activity of the unprotected amino precursor 12, urea-containing inhibitor 13 and C- and N-triazole-containing inhibitors 14 and 15 (Figure 4) that we previously synthesized (Table 1). Commercially available tunicamycin from Streptomyces sp. was used as a positive control in the test.
The inhibitory activity of the synthesized compounds 1–5 was determined as described in Reference. The compounds were evaluated on His-tagged MraY transferase purified from Aquifex aeolicus (MraYAA) prepared as previously described by Chung et al.. The assays were performed as previously described by Stachyra et al. in 96-well plates in a total reaction mixture of 100 µL containing 100 mM of Tris-HCl (pH 7.5), 40 mM MgCl2, 150 µM C55-P, 150 mM NaCl, 25 µM dansylated UDP-MurNAc-pentapeptide and 0.4% of n-dodecyl β-D-maltoside. The reaction was initiated by the addition of pure MraYAA enzyme (10 µL, 0.036 mg/mL). Briefly, MraY catalyzed the formation of lipid I, displaying an apolar environment from polar and hydrosoluble dansylated-UDP-MurNAc-pentapeptide. This modification in the environment of the dansyl probe was accompanied by an enhancement (3.4 times) of fluorescence, as well as a shift of the maximum of fluorescence emission spectrum from 560 nm for the dansylated nucleotidic substrate to 530 nm for the dansylated lipid product (see Figure 2 in Stachyra et al.. This property was exploited to develop an HTS assay and to assess MraY activity by using an Enspire fluorescence microplate reader (Perkin-Elmer, Courtaboeuf, France). The fluorescence measurement was read every two minutes at 37 °C, under shaking during 60 min; the excitation wavelength and the emission wavelength were 340 nm and 530 nm, respectively. Experiments were performed in triplicate, and each experiment was repeated at least twice. In each case, the fluorescence of a control sample without enzyme was subtracted, initial velocity was calculated and percent inhibition was deduced. IC50 values were determined from plots of the percent inhibition versus the inhibitor concentration, and data were processed on Excel software.

[8] = system: six selected bacterial species; set-up: method as in PMID 34115086; details: previously reported; ref [32]; cited from earlier work
[9] = system: MraY; details: Table 2, known inhibitor, cited from earlier work

T1 sequence (O66465 whole entry): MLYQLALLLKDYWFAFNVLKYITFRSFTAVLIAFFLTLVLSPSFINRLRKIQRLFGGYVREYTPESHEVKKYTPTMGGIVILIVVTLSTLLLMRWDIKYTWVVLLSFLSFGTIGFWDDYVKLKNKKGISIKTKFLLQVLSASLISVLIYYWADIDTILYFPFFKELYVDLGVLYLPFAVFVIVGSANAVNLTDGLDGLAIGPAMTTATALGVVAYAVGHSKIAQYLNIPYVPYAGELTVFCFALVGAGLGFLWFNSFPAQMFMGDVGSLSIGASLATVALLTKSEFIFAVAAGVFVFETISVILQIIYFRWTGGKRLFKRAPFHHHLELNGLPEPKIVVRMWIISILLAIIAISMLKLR

Row | Molecule | CMI [1] [µg/mL] | CMI [2] [µg/mL] | CMI [3] [µg/mL] | CMI [4] [µg/mL] | CMI [5] [µg/mL] | CMI [6] [µg/mL] | IC50 [7] [nM] | antibacterial activity [8] | IC50 ([9]; ref [41]) [nM] | IC50 ([9]; ref [31]) [nM] | gain in activity (factor) as compared to the reference compound 13 with an urea linker ([7]; ratio of MraYAA IC50 values)
1 | CCN1CCN(C(=O)N[C@@H](C(=O)N[C@@H]2C(=O)N3[C@@H]2SC(C)(C)[C@@H]3C(=O)O)c2ccccc2)C(=O)C1=O [Piperacillin, reference compound] | 4 | 4 | 4 | 4 | > 128 | 8 |  |  |  |  | 
2 | NC[C@H](O[C@@H]1O[C@H](CN)[C@@H](O)[C@H]1O)[C@H]1O[C@@H](n2ccc(=O)[nH]c2=O)[C@H](O)[C@@H]1O [Compound 12, reference compound] |  |  |  |  |  |  | 50300 ± 3270 |  |  |  | 
3 | Tunicamycin [reference compound] |  |  |  |  |  |  | 26 |  |  |  | 
4 | CCCCCCCCCCNc1c(NCC(OC2OC(CN)C(O)C2O)C2OC(n3ccc(=O)[nH]c3=O)C(O)C2O)c(=O)c1=O (stereo not drawn) [Compound 2] | > 128 | > 128 | > 128 | > 128 | > 128 | > 128 | 17970 ± 40 |  |  |  | 
5 | CCCCCCCCCCNC(=O)NC[C@H](O[C@@H]1O[C@H](CN)[C@@H](O)[C@H]1O)[C@H]1O[C@@H](n2ccc(=O)[nH]c2=O)[C@H](O)[C@@H]1O [Compound 13, reference compound] | > 128 | > 128 | > 128 | > 128 | > 128 | > 128 | 1930 ± 130 | does not display antibacterial activity |  |  | 
6 | CCCCCCCCCCS(=O)(=O)NCC(OC1OC(CN)C(O)C1O)C1OC(n2ccc(=O)[nH]c2=O)C(O)C1O (stereo not drawn) [Compound 5] | > 128 | > 128 | > 128 | > 128 | > 128 | > 128 | 2910 ± 130 |  |  |  | 
7 | CC(C)C[C@H](NC(=O)[C@@H](NC(=O)N[C@H](C(=O)O)C(C)C)[C@@H]1CCN=C(N)N1)C(=O)NCCCN[C@H](C(=O)O)[C@H](O[C@@H]1O[C@H](CN)[C@@H](O)[C@H]1O)[C@H]1O[C@@H](n2ccc(=O)[nH]c2=O)[C@H](O)[C@@H]1O [Muraymycin D2] |  |  |  |  |  |  |  |  | 46 |  | 
8 | CCCCCCCCCCCCCCCCC[C@H]1CN(C)[C@@H]([C@H](O[C@@H]2O[C@H](CN)[C@@H](O)[C@H]2O)[C@H]2O[C@@H](n3ccc(=O)[nH]c3=O)[C@H](O)[C@@H]2O)C(=O)N(C)[C@@H]1C(=O)O [Carbacaprazamycin] |  |  |  |  |  |  |  |  |  | 104 | 
9 | CN[C@H](CC(C)C)C(=O)N[C@H]1C(=O)N[C@@H](CC(N)=O)C(=O)N[C@H]2C(=O)N[C@H]3C(=O)N[C@H](C(=O)N[C@H](C(=O)O)c4cc(O)cc(O)c4-c4cc3ccc4O)[C@H](O)c3ccc(c(Cl)c3)Oc3cc2cc(c3O[C@@H]2O[C@H](CO)[C@@H](O)[C@H](O)[C@H]2O[C@H]2C[C@](C)(N)[C@H](O)[C@H](C)O2)Oc2ccc(cc2Cl)[C@H]1O [Vancomycin, reference compound] | 1 |  | 0.5 |  | 1 |  |  |  |  |  | 
10 | CCCCCCCCCCC(=O)NCC(OC1OC(CN)C(O)C1O)C1OC(n2ccc(=O)[nH]c2=O)C(O)C1O (stereo not drawn) [Compound 4] | 128 | > 128 | 128 | > 128 | 128 | > 128 | 6490 ± 210 |  |  |  | 
11 | CCCCCCCCCCNC(=O)C(O)C(O)C(=O)NCC(OC1OC(CN)C(O)C1O)C1OC(n2ccc(=O)[nH]c2=O)C(O)C1O [(R,R)-3b] | 128 | > 128 | > 128 | > 128 | > 128 | > 128 | 1380 ± 50 |  |  |  | 
12 | CCCCCCCCCCNC(=O)C(O)C(O)C(=O)NCC(OC1OC(CN)C(O)C1O)C1OC(n2ccc(=O)[nH]c2=O)C(O)C1O [Compound (S,S)-3a] | 128 | > 128 | > 128 | > 128 | > 128 | > 128 | 370 ± 10 |  |  |  | 5
